Assay results taken from patent US20140228377A1, “METHYLPIPERIDINE DERIVATIVE” (TAISHO PHARMACEUTICAL CO., LTD., priority 2011, published 2014).

Columns and labels:
[1] = target: T1, human orexin-1 receptor (hOX1R) (Homo sapiens, UniProt O43613); assay: Orexin antagonistic activity assay (intracellular Ca2+, FDSS) in CHO cells expressing hOX1R; type: cell-based; conditions: CHO cells expressing hOX1R; ligand peptide 300 pM; Fluo-3 maximum fluorescence intensity; read-out: IC50 value OX1
T1 construct: expressed in transfected cells; host or cells: Chinese hamster ovary (CHO) cells
T1 sequence (O43613 1-425): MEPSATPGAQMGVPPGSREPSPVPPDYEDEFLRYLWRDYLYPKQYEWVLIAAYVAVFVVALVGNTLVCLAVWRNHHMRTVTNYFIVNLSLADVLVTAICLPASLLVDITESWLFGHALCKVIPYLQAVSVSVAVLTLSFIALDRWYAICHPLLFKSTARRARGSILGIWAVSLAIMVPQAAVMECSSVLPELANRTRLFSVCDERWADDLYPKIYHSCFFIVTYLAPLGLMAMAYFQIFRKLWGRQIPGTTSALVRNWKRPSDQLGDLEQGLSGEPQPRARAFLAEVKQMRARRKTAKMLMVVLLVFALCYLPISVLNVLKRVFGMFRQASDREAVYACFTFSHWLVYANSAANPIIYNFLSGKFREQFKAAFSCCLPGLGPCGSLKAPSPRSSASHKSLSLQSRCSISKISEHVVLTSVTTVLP
Experimental: (§1) The antagonistic activity of each test compound against human orexin-1 receptor (hOX1R) and orexin-2 receptor (hOX2R) was assayed by a modification of a method described in the literature (Toshikatsu Okumura et al., Biochemical and Biophysical Research Communications 280, 976-981, 2001). Chinese hamster ovary (CHO) cells forced to express hOX1R or hOX2R were inoculated at a density of 20,000 cells/well to a 96-well Black clear bottom plate (Nunc) and cultured at 37° C. for 16 hours under 5% CO2 conditions in a Ham's F-12 medium containing 0.1 mM MEM nonessential amino acids, 0.5 mg/ml G418, and 10% fetal bovine serum (all from Invitrogen Corp.). After removal of the medium, 100 μL of a buffer solution for assay (25 mM HEPES (Dojindo Laboratories), Hanks' balanced salt solution (Invitrogen Corp.), 0.1% bovine serum albumin, 2.5 mM probenecid, and 200 μg/ml Amaranth (all from Sigma-Aldrich Corp.), pH 7.4) containing 0.5 μM Fluo-3 AM ester (Dojindo Laboratories) was added to the cells, which were then incubated at 37° C. for 60 minutes under 5% CO2 conditions. After removal of the buffer solution for assay containing Fluo-3 AM ester, each test compound was dissolved at a concentration of 10 mM in dimethyl sulfoxide and diluted with a buffer solution for assay. Then, 150 μL of the solution was added to the cells, which were then incubated for 30 minutes.
(§2) A ligand peptide (Pyr-[…]NH2; Peptide Institute, Inc.) derived from human orexin-A by the substitution of two amino acids was diluted with a buffer solution for assay to final concentrations of 300 pM for hOX1R and 3 nM for hOX2R. Reaction was initiated by the addition of 50 μL of this ligand solution. The fluorescence intensity of the reaction was measured in each well every second for 3 minutes using Functional Drug Screening System (FDSS; manufactured by Hamamatsu Photonics K.K.), and the maximum fluorescence intensity was used as an index for intracellular Ca^2+ concentration to determine antagonistic activity. The antagonistic activity of the test compound was calculated with fluorescence intensity from a well supplemented with only a diluting buffer solution as 100% and fluorescence intensity from a well supplemented with a buffer solution free from the ligand and the compound as 0%. The 50% inhibitory concentration (IC50 value) was determined on the basis of fluorescence intensity derived from the test compound added at varying concentrations.

[2] = target: T2, orexin-2 receptor (hOX2R) (Homo sapiens, UniProt O43614); assay: Orexin antagonistic activity assay (intracellular Ca2+, FDSS) in CHO cells expressing hOX2R; type: cell-based; conditions: CHO cells expressing hOX2R; ligand peptide 3 nM; Fluo-3 maximum fluorescence intensity; read-out: IC50 value OX2
T2 construct: expressed in transfected cells; host or cells: Chinese hamster ovary (CHO) cells
T2 sequence (O43614 1-444): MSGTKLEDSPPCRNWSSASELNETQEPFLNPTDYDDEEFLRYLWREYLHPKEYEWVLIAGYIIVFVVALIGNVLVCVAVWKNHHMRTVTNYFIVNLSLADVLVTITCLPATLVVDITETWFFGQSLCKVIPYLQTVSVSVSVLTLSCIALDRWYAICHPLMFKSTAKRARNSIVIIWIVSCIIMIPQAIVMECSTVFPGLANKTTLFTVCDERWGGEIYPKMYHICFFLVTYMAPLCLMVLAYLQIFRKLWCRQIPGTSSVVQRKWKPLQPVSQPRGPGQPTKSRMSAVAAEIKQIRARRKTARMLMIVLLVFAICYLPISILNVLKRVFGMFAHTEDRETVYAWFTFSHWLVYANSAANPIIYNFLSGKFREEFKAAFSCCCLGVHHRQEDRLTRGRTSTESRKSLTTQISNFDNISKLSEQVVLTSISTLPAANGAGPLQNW
Experimental: as §1, §2

Row | Structure (SMILES) | IC50 [1] [nM] | IC50 [2] [nM]
1 | C[C@@H]1CC[C@@H](c2nc3cc(Cl)ccc3o2)CN1C(=O)c1cc(Br)ccc1-n1nccn1 [Example 22, [5-Bromo-2-(2H-1,2,3-triazol-2-yl)phenyyl][(2R,5R)-5-(5-chloro-1,3-benzoxazol-2-yl)-2-methylpiperidin-1-yl]methanone] | 31.9 | 7.8
2 | C[C@@H]1CC[C@@H](c2nc3cc(Cl)ccc3o2)CN1C(=O)c1cc(F)ccc1-c1ncc(F)cn1 [Example 23, [(2R,5R)-5-(5-Chloro-1,3-benzoxazol-2-yl)-2-methylpiperidin-1-yl][5-fluoro-2-(5-fluoropyrimidin-2-yl)phenyl]methanone] | 168 | 22.5
3 | COc1cnc(-c2ccc(F)cc2C(=O)N2C[C@H](c3nc4cc(Cl)ccc4o3)CC[C@H]2C)nc1 [Example 24, [(2R,5R)-5-(5-Chloro-1,3-benzoxazol-2-yl)-2-methylpiperidin-1-yl][5-fluoro-2-(5-methoxypyrimidin-2-yl)phenyl]methanone] | 99.2 | 8.5
4 | COc1ccc(-n2nccn2)c(C(=O)N2C[C@H](c3nc4cc(Cl)ccc4o3)CC[C@H]2C)c1 [Example 25, [(2R,5R)-5-(5-Chloro-1,3-benzoxazol-2-yl)-2-methylpiperidin-1-yl][5-methoxy-2-(2H-1,2,3-triazol-2-yl)phenyl]methanone] | 387 | 66
5 | Cc1ccc(C(=O)N2C[C@H](c3nc4cc(Cl)ccc4o3)CC[C@H]2C)c(-n2nccn2)c1 [Example 26, [(2R,5R)-5-(5-Chloro-1,3-benzoxazol-2-yl)-2-methylpiperidin-1-yl][4-methyl-2-(2H-1,2,3-triazol-2-yl)phenyl]methanone] | 11 | 8.4
6 | C[C@@H]1CC[C@@H](c2nc3cc(Cl)ccc3o2)CN1C(=O)c1ccc(Cl)cc1-n1nccn1 [Example 27, [(2R,5R)-5-(5-Chloro-1,3-benzoxazol-2-yl)-2-methylpiperidin-1-yl][4-chloro-2-(2H-1,2,3-triazol-2-yl)phenyl]methanone] | 1790 | 187
7 | C[C@@H]1CC[C@@H](c2nc3cc(F)ccc3o2)CN1C(=O)c1ccccc1-n1nccn1 [Example 28, [(2R,5R)-5-(5-Fluoro-1,3-benzoxazol-2-yl)-2-methylpiperidin-1-yl][2-(2H-1,2,3-triazol-2-yl)phenyl]methanone] | 50.4 | 1.5
8 | C[C@@H]1CC[C@@H](c2nc3cc(F)ccc3o2)CN1C(=O)c1cc(F)ccc1-n1nccn1 [Example 29, [(2R,5R)-5-(5-Fluoro-1,3-benzoxazol-2-yl)-2-methylpiperidin-1-yl][5-fluoro-2-(2H-1,2,3-triazol-2-yl)phenyl]methanone] | 111 | 6
9 | C[C@@H]1CC[C@@H](c2nc3cc(F)ccc3o2)CN1C(=O)c1cc(Cl)ccc1-n1nccn1 [Example 30, [5-Chloro-2-(2H-1,2,3-triazol-2-yl)phenyl][(2R,5R)-5-(5-fluoro-1,3-benzoxazol-2-yl)-2-methylpiperidin-1-yl]methanone] | 74.4 | 3.7
10 | C[C@@H]1CC[C@@H](c2nc3cc(F)ccc3o2)CN1C(=O)c1ccccc1-c1ncccn1 [Example 31, [(2R,5R)-5-(5-Fluoro-1,3-benzoxazol-2-yl)-2-methylpiperidin-1-yl][2-(pyrimidin-2-yl)phenyl]methanone] | 68.1 | 29.7
11 | C[C@@H]1CC[C@@H](c2nc3cc(F)ccc3o2)CN1C(=O)c1cc(F)ccc1-c1ncccn1 [Example 32, [(2R,5R)-5-(5-Fluoro-1,3-benzoxazol-2-yl)-2-methylpiperidin-1-yl][5-fluoro-2-(pyrimidin-2-yl)phenyl]methanone] | 24.9 | 8.2
12 | C[C@@H]1CC[C@@H](c2nc3cc(F)ccc3o2)CN1C(=O)c1cc(Cl)ccc1-c1ncccn1 [Example 33, [5-Chloro-2-(pyrimidin-2-yl)phenyl][(2R,5R)-5-(5-fluoro-1,3-benzoxazol-2-yl)-2-methylpiperidin-1-yl]methanone] | 44.6 | 9.2
13 | C[C@@H]1CC[C@@H](c2nc3cc(F)ccc3o2)CN1C(=O)c1ccc(F)cc1-n1nccn1 [Example 34, [(2R,5R)-5-(5-Fluoro-1,3-benzoxazol-2-yl)-2-methylpiperidin-1-yl][4-fluoro-2-(2H-1,2,3-triazol-2-yl)phenyl]methanone] | 212 | 8.4
14 | C[C@@H]1CC[C@@H](c2nc3cc(F)ccc3o2)CN1C(=O)c1c(F)cccc1-n1nccn1 [Example 35, [(2R,5R)-5-(5-Fluoro-1,3-benzoxazol-2-yl)-2-methylpiperidin-1-yl][2-fluoro-6-(2H-1,2,3-triazol-2-yl)phenyl]methanone] | 91.1 | 5
15 | Cc1ccc(-n2nccn2)c(C(=O)N2C[C@H](c3nc4cc(C(F)(F)F)ccc4o3)CC[C@H]2C)c1 [Example 36, [5-Methyl-2-(2H-1,2,3-triazol-2-yl)phenyl][(2R,5R)-2-methyl-5-[5-(trifluoromethyl)-1,3-benzoxazol-2-yl]piperidin-1-yl]methanone] | 8.9 | 2.5
16 | Cc1ccc(-c2ncccn2)c(C(=O)N2C[C@H](c3nc4cc(C(F)(F)F)ccc4o3)CC[C@H]2C)c1 [Example 37, [5-Methyl-2-(pyrimidin-2-yl)phenyl]{(2R,5R)-2-methyl-5-[5-(trifluoromethyl)-1,3-benzoxazol-2-yl]piperidin-1-yl}methanone] | 36.5 | 9.3
17 | C[C@@H]1CC[C@@H](c2nc3cc(C(F)(F)F)ccc3o2)CN1C(=O)c1cc(F)ccc1-c1ncccn1 [Example 38, [5-Fluoro-2-(pyrimidin-2-yl)phenyl]{(2R,5R)-2-methyl-5-[5-(trifluoromethyl)-1,3-benzoxazol-2-yl]piperidin-1-yl}methanone] | 814 | 78.6
18 | C[C@@H]1CC[C@@H](c2nc3cc(C(F)(F)F)ccc3o2)CN1C(=O)c1cc(Cl)ccc1-c1ncccn1 [Example 39, [5-Chloro-2-(pyrimidin-2-yl)phenyl]{(2R,5R)-2-methyl-5-[5-(trifluoromethyl)-1,3-benzoxazol-2-yl]piperidin-1-yl}methanone] | 123 | 26.3
19 | Cc1ccc(-n2nccn2)c(C(=O)N2C[C@H](c3nc4cc(C(F)(F)F)ccc4o3)CC[C@H]2C)n1 [Example 40, [6-Methyl-3-(2H-1,2,3-triazol-2-yl)pyridin-2-yl]{(2R,5R)-2-methyl-5-[5-(trifluoromethyl)-1,3-benzoxazol-2-yl]piperidin-1-yl}methanone] | 157 | 100
20 | Cc1ccc(-c2ncccn2)c(C(=O)N2C[C@H](c3nc4cc(OC(F)(F)F)ccc4o3)CC[C@H]2C)c1 [Example 41, [5-Methyl-2-(pyrimidin-2-yl)phenyl]{(2R,5R)-2-methyl-5-[5-(trifluoromethoxy)-1,3-benzoxazol-2-yl]piperidin-1-yl}methanone] | 177 | 45.1
